# Publication PMC6731142 (Cell, 2019)
# Bridge positions count the residues as written; N and C are the ends. Ends that are not written are not given here. * marks the point of attachment. Biotin = O=C1N[C@H]2[C@H](CS[C@H]2CCCCC(=O)*)N1
# B1: Biotin-GSGS-WaTx (N-terminal biotinylated Wasabi Receptor Toxin) (peptide)
# peptide: GSGSASPQQAKYCYEQCNVNKVPFDQCYQMCSPLERS
# modifications: biotin on the N-terminus; directed disulfide bonds C9-C27 and C13-C23 (WaTx numbering)
# Key:
# hTRPA1 [1] = molecular target: T1, hTRPA1 (Homo sapiens, UniProt O75762); type: cell-based; details: human TRPA1-transfected HEK cells, whole-cell; mean ± SEM; p < 0.05 unpaired two-tailed t-test
# T1 sequence (O75762 whole entry): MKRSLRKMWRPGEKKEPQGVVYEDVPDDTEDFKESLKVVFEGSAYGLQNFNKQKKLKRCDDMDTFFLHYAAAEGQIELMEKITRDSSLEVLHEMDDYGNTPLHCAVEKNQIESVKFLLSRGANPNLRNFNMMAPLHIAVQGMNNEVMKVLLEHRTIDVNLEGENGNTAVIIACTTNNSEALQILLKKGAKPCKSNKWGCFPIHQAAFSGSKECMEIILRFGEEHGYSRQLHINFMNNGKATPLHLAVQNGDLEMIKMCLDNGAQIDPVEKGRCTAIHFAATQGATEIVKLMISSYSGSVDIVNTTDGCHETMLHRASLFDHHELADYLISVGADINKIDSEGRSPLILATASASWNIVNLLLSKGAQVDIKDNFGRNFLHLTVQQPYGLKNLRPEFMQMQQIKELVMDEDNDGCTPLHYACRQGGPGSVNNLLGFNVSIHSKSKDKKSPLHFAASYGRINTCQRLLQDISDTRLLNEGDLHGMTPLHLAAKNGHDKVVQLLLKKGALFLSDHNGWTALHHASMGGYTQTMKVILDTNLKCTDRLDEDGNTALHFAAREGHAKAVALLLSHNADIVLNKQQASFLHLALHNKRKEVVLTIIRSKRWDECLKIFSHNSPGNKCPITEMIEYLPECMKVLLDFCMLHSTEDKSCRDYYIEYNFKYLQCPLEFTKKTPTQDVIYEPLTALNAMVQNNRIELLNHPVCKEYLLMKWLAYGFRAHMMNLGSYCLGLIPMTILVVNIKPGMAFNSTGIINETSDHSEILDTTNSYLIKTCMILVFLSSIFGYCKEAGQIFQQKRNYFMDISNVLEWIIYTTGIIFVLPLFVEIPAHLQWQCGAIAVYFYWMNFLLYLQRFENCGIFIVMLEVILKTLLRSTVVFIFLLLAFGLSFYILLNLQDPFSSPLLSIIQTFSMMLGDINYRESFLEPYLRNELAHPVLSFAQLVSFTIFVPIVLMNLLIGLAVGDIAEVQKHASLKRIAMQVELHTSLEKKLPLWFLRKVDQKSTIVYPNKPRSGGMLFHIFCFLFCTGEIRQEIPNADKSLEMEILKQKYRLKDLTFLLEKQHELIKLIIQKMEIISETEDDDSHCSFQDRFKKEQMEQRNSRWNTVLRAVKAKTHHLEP
# [2] = system: cultured rat trigeminal neurons; experiment: CGRP release ELISA from cultured trigeminal neurons; type: cell-based; details: WaTx 10 μM
# mouse hindpaw [3] = experiment: Thermal; type: in vivo; details: for Mechanical hypersensitivity in capsaicin-ablated animals: intrathecally capsaicin ablated mice, n = 6–8 mice/treatment; for Hypersensitivity to thermal and mechanical stimuli: wild-type mice, intraplantar injection
# mouse hindpaw [4] = details: for Acute nocifensive behavior in capsaicin-ablated animals: intrathecally capsaicin ablated mice
# hTRPA1 [5] = molecular target: T1, hTRPA1; experiment: Single-channel cell-attached and excised-patch recordings of TRPA1 in HEK cells; type: cell-based; details: for Effect on divalent over monovalent cation selectivity: excised patches, AITC 50 μM, n = 3–7 patches/condition; for Effect on divalent over monovalent cation selectivity / Duration of evoked channel openings / Average latency to first channel opening: WaTx 100 nM; for Duration of evoked channel openings / Average latency to first channel opening: inside-out patches, AITC 10 μM; for Duration of evoked channel openings: Vh = −40 mV, n = 6–8 patches/treatment; for Average latency to first channel opening: n = 13–14 patches/treatment
# mouse hindpaw [6] = experiment: Neurogenic inflammation: paw edema and Evan's Blue Dye extravasation; type: in vivo; details: intrathecally capsaicin ablated mice; AITC 0.75% v/v
# [7] = system: rat snake TRPA1 (rsTRPA1); details: ref Banzawa et al., 2014; McNamara et al., 2007; cited from earlier work
# human TRPA1 = type: cell-based; details: WaTx 1 μM, whole-cell, n = 3–9 cells/construct
# [8] = system: trigeminal sensory neurons; experiment: Ca2+ imaging of cultured mouse trigeminal sensory neurons; type: cell-based
# rsTRPA1 = type: binding, Texas rat snake (Elaphe obsoleta lindheimeri); details: gain-of-function mutant A627P
# [9] = system: rat snake TRPA1 (rsTRPA1); experiment: Whole-cell patch-clamp recordings of rat snake TRPA1 in transfected HEK cells; type: cell-based, Texas rat snake (Elaphe obsoleta lindheimeri)
# hTRPA1 [10] = molecular target: T1, hTRPA1; type: binding; details: wild-type hTRPA1-transfected HEK293 membranes
# [11] = molecular target: human TRPA1, full-length wild type (human, UniProt O75762 1-1119); experiment: BLI
# human TRPA1, full-length wild type, sequence (O75762 whole entry): as above
molecule,measurement,setting,value
"C=CCN=C=S [AITC, allyl isothiocyanate, reference compound]",τoff (reversal of membrane currents upon washout),hTRPA1 [1],27 ± 5 s
same,"CGRP release, physiological extracellular Ca2+","[2]; 2mM extracellular Ca2+, AITC 100 μM, 5 min at RT",promoted robust CGRP release
same,Mechanical hypersensitivity in capsaicin-ablated animals,mouse hindpaw [3],developed mechanical hypersensitivity (albeit with a delayed onset)
same,Hypersensitivity to thermal and mechanical stimuli,mouse hindpaw [3],substantial and long-lasting hypersensitivity
same,Acute nocifensive behavior in capsaicin-ablated animals,mouse hindpaw [4],not acute nocifensive behavior
same,Effect on divalent over monovalent cation selectivity,hTRPA1 [5],small but significant increase in divalent cation selectivity
same,Duration of evoked channel openings,hTRPA1 [5],≤ 5 ms
same,Average latency to first channel opening,hTRPA1 [5],dramatically shortened
same,Paw swelling in capsaicin-ablated animals,mouse hindpaw [6],produced swelling
CC(C)c1ccc(NC(=O)Cn2cnc3c2c(=O)n(C)c(=O)n3C)cc1 [HC 030031],Inhibitor effectiveness against rsTRPA1,[7],effective
CCC(=N\O)/C(C)=C/c1ccc(F)cc1 [A 967079],Inhibitor effectiveness against rsTRPA1,[7],ineffective
"WaTx (Biotin-GSGSASPQQAKYCYEQCNVNKVPFDQCYQMCSPLERS; disulfide 13-31, 17-27; not fully specified)",τoff (reversal of membrane currents upon washout),hTRPA1 [1],4.6 ± 1.2 s
same,"Toxin sensitivity of hTRPA1 mutants P622A, M634L, T646P",human TRPA1,abrogated toxin sensitivity
same,"CGRP release, raised extracellular Ca2+",[2]; 20mM extracellular Ca2+ (10-fold),able to promote CGRP release
same,Mechanical hypersensitivity in capsaicin-ablated animals,mouse hindpaw [3],failed to exhibit any signs of mechanical hypersensitivity
same,Hypersensitivity to thermal and mechanical stimuli,mouse hindpaw [3],substantial and long-lasting hypersensitivity
same,Effect on neurons from TRPA1-deficient animals,"[8]; WaTx 5 μM, TRPA1−/− mouse trigeminal neuron cultures",no effect
same,"Selectivity of neuron excitation, wild-type mice","[8]; saturating dose 5μM WaTx, AITC 50μM",excited only the cohort sensitive to a selective dose of AITC
same,Nocifensive (pain-related) behavior,"mouse hindpaw [4]; 20 μL intraplantar to hindpaw, wild-type mice, scored 20 min","vigorous, dose-dependent nocifensive (pain-related) behavior"
same,Nocifensive and c-Fos responses in TRPA1-deficient mice,mouse hindpaw [4]; TRPA1−/− mice,not observed
same,c-Fos immunoreactivity in superficial laminae of spinal cord dorsal horn,"mouse hindpaw [4]; after hindpaw injection, wild-type mice, n = 22–39 sections/group",induction of c-Fos immunoreactivity
same,Acute nocifensive behavior in capsaicin-ablated animals,mouse hindpaw [4],lacked acute nocifensive behavior
same,Binding of rsTRPA1 A627P membranes,rsTRPA1,did display binding
same,Toxin sensitivity of rsTRPA1 A627P,"[9]; WaTx 5 μM, whole-cell",sufficient to confer toxin sensitivity
same,Sensitivity of rat snake TRPA1 to toxin,"[9]; whole-cell patch clamp, n = 4–12 HEK cells/condition",insensitive
same,Activation of channels in cell-attached mode,"hTRPA1 [5]; cell-attached HEK cell patches, n = 12",WaTx-evoked responses in the on-cell patch configuration
same,Activation of channels in excised patches,"hTRPA1 [5]; excised outside-out / inside-out patches, bath application",activity was observed in either configuration
same,Effect on divalent over monovalent cation selectivity,hTRPA1 [5],largely abolished
same,Duration of evoked channel openings,hTRPA1 [5],≤ 20 ms
same,Average latency to first channel opening,hTRPA1 [5],"indistinguishable from that of basal, spontaneous events"
same,Binding of hTRPA1 membranes,hTRPA1 [10],Robust binding
B1,Kd,[11],0.33 pM
same,koff,[11],7.13e-06 s⁻¹
